Assay type in all cases: functional
In test [1] the test system is Toxocara canis. As to the kind of experiment: Antiparasitic activity against Toxocara canis assessed as relative mobility at 1 to 10000 uM measured after 24 hrs by. The following applies: dose 1-10000 µM, read-out: ED50 (the source's name).
Test [2] relates to Toxocara cati. As to the kind of experiment: Antiparasitic activity against Toxocara cati infected in cat assessed as worm burden reduction at 25 mg/kg,po measured after 3 days. Further details: scale not given: the % may be the effect or the level left. The following applies: time 3 day.
For test [3], the system named is Toxocara cati. Nature of the test: Antiparasitic activity against Toxocara cati infected in cat assessed as worm burden reduction at 50 mg/kg, po measured after 2 days. Further details: scale not given: the % may be the effect or the level left. The following applies: time 2 day.
Test [4] has as its system Toxocara canis. As to the kind of experiment: Antiparasitic activity against Toxocara canis infected in dog assessed as egg burden reduction at 50 mg/kg,po measured after 3 days. Further details: scale not given: the % may be the effect or the level left. The note with it: time 3 day.
Test [5] concerns Toxocara canis. As to the kind of experiment: Antiparasitic activity against Toxocara canis assessed as larvicidal activity at 1100 uM measured after 48 hrs relative to control.
Test [6] deals with Toxocara canis. Nature of the test: Antiparasitic activity against Toxocara canis infected in mouse assessed as worm burden reduction in muscles at 25 mg/kg,sc administered twice a day for 5 days relative to control. Further details: scale not given: the % may be the effect or the level left. The following applies: time 5 day.
Test [7] relates to Toxocara canis. Nature of the test: Antiparasitic activity against Toxocara canis infected in mouse assessed as worm burden reduction in brain at 25 mg/kg,sc administered twice a day for 5 days relative to control. The note with it: time 5 day. Further details: scale not given: the % may be the effect or the level left.
Test [8] relates to Toxocara canis. Nature of the test: Antiparasitic activity against Toxocara canis infected in mouse assessed as worm burden reduction in muscles at 25 mg/kg,po or sc administered twice a day for 5 days relative to control. Further details: scale not given: the % may be the effect or the level left. The note with it: time 5 day.
Test [9] concerns Toxocara canis. Nature of the test: Antiparasitic activity against Toxocara canis assessed as relative mobility.
The test system of test [10] is Toxocara canis. Nature of the test: Antiparasitic activity against Toxocara canis assessed as larvicidal activity at 192 uM measured after 48 hrs relative to control.
Test [11] has as its system Toxocara canis. As to the kind of experiment: Antiparasitic activity against Toxocara canis infected in mouse assessed as worm burden reduction in brain at 25 mg/kg,po or sc administered twice a day for 5 days relative to control. Further details: scale not given: the % may be the effect or the level left. The following applies: time 5 day.
The test system of test [12] is Toxocara canis. As to the kind of experiment: Antiparasitic activity against Toxocara canis infected in mouse assessed as worm burden reduction in brain at 150 mg/kg,sc administered twice a day relative to control. Further details: scale not given: the % may be the effect or the level left.
For test [13], the system named is Toxocara canis. As to the kind of experiment: Antiparasitic activity against Toxocara canis infected in mouse assessed as worm burden reduction in muscles at 350 mg/kg,sc administered twice a day relative to control. Further details: scale not given: the % may be the effect or the level left.
Test [14] concerns Toxocara canis. As to the kind of experiment: Antiparasitic activity against Toxocara canis infected in mouse assessed as worm burden reduction in brain at 100 mg/kg,po administered twice a day for 5 days relative to control. Further details: scale not given: the % may be the effect or the level left. The note with it: time 5 day.
Test [15] relates to Toxocara vitulorum. As to the kind of experiment: Antiparasitic activity against Toxocara vitulorum infected in assessed as decrease in number of larvae in lung at 40 mg/kg,po measured after 7 days. The following applies: 168 h, time 7 day.
Test [16] concerns Toxocara vitulorum. Nature of the test: Antiparasitic activity against Toxocara vitulorum infected in assessed as decrease in number of larvae in liver at 40 mg/kg,po measured after 7 days. The note with it: 168 h, time 7 day.
Test [17] relates to Toxocara canis. Nature of the test: Antiparasitic activity against Toxocara canis j2 larvae assessed as relative mobility at 18 uM measured after 48 hrs.

Molecules are shown by their SMILES. pEC50: −log10 of the molar value.

Data on 14 molecules can be found in ChEMBL document CHEMBL5346919, “Toward anthelmintic drug candidates for toxocariasis: Challenges and recent developments” (2023).

Take `COc1ccc2c(c1OC)CN(C)CCc1cc3c(cc1C(=O)C2)OCO3` [ALLOCRYPTOPINE]: the pEC50 in the test on Toxocara canis [1] was 3.46.

As to `O=C(Nc1ccc(N=C=S)cc1Cl)c1cc(Br)cc(Br)c1O`, the Activity in the test with Toxocara cati [2], in the test with Toxocara cati [3] and with Toxocara canis [4] was 100% each time.

Regarding `CC1(C)CC2=C(O1)C1(CO1)c1ccccc1C2=O` (stereo not given), the Activity in the test on Toxocara canis [5] amounted to 100%.

`COC(=O)Nc1nc2cc(Sc3ccccc3)ccc2[nH]1` [FENBENDAZOLE]: the Activity was 55.7% in the test with Toxocara canis [6], 44.7% with Toxocara canis [7] and 89.5% in the test with Toxocara canis [8].

For `CC1(C)CCC2=C(O1)C1(CO1)C1=C(CCCC1)C2=O` (stereo not given), in the test with Toxocara canis [5], the Activity stood at 100%.

`OCCCC1NCCc2c1[nH]c1ccccc21` (stereo not given): in the test with Toxocara canis [9], the ED stood at 59.9 µM.

Regarding `O=C1C(Cl)=C(Cl)C2(CO2)c2ccccc21` (stereo not given), the Activity in the test with Toxocara canis [5] worked out at 100%.

Consider `CC1(C)CCC2=C(O1)C1(CO1)c1ccccc1C2=O` (stereo not given), for which the Activity with Toxocara canis [5] and with Toxocara canis [10] was 100% in each case.

In the case of `COc1cc2c(cc1OC)-c1c(C)c3ccc(OC)c(OC)c3c[n+]1CC2` [DEHYDROCORYDALINE], the pEC50 in the test with Toxocara canis [1] is 3.53.

Take `CCCSc1ccc2[nH]c(NC(=O)OC)nc2c1` [ALBENDAZOLE]: the Activity in the test with Toxocara canis [6] came out at 70%; in the test on Toxocara canis [11] it was 66.1%; in the test on Toxocara canis [7], 92.2%; with Toxocara canis [12], 54.2%; in the test on Toxocara canis [13] it was 37.5%; in the test with Toxocara canis [14], 100%.

Turning to `COc1ccc(Cc2nccc3cc(OC)c(OC)cc23)cc1OC` [PAPAVERINE], the pEC50 with Toxocara canis [1] was 3.60.

Turning to `Cc1ccc(C(C)C)c(O)c1` [THYMOL], the inhibition in vivo (as a rule, the relative decrease from the control value, in per cent) at 40 mg/kg with Toxocara vitulorum [15] turned out to be 66.7%; in the test on Toxocara vitulorum [16], 58.5%.

`C=CCOC1=CC(=O)c2ccccc2C12CO2` (stereo not given): in the test with Toxocara canis [5], the Activity turned out to be 100%.

Turning to `CCCSc1ccc2c(c1)nc(NC(=O)OC)n2COC(C)=O`, the Activity with Toxocara canis [17] worked out at 30%.
